Laboratory results published in patent US10098878B2, “HIF-2α inhibitors for treating iron overload disorders” (The Board of Regents of the University of Texas System, priority 2014, dated 2018).
pEC50, pIC50: −log10 of the molar value. Read-outs that look alike come from different tables or passages of the source.

Key:
[1] = biological target: T1, HIF-2α HIS TAG-PASB Domain (Homo sapiens, UniProt Q99814); assay: HIF-2α Scintillation Proximity Assay (SPA); format: binding; details: 100 nM HIF-2α HIS TAG-PASB Domain
T1 construct: 100 nM HIF-2α HIS TAG-PASB Domain
Procedure, shortened: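 IC50 values rest on percent inhibition, where the sample signal is scaled between high and low controls. Wells contain about 100 μL: compound dispensed as 2 μL of DMSO solution, 88 μL protein-probe mix and 10 μL of beads.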

786-O-Hif-Luc cells = assay: Luciferase Assay; format: cell-based; details: 786-O-Hif-Luc cells, about 24 hours, read-out: Luciferase EC50
Description: A pool of infected cells were then selected against 2 μg/mL of puromycin (P8833, Sigma) for 10 days followed by limited dilution to select single clones.
Each concentration was tested in triplicate. After about 24 hours, luciferase activity was determined using ONE-Glo Luciferase Assay Reagent (E6110, Promega) following the manufacturer's recommended procedure. EC50 were calculated by using Dotmatics software.

786-0 cells = assay: VEGF ELISA Assay; format: cell-based; details: VEGFA concentration in cell culture medium, read-out: VEGF ELISA EC50
Description: Each concentration had duplicated wells. About 20 hours later, medium was removed by suction and each well was supplied with 180 μL of growth medium. About 20 μl freshly-made 10× compound stocks were added to each well. […] The EC50 was calculated by GraphPad Prism using the dose-response-inhibition (four parameter) equation. The cell seeded plate was then subjected to CellTiter-Glo luminescence cell viability assay (Promega) by adding 50 μL of Celltiter Glo reagent into each well and shaking the plate for 8 minutes at 550 rpm (Thermomixer R, Eppendorf) then read luminescence signal in plate reader (3 second delay, 0.5 second/well integration time, Synergy 2 multi Detection Microplate reader) immediately.

[2] = 150 nM Compound 211 probe, read-out: SPA IC50
[3] = Homo sapiens, 786-0, 786-0 cells
[4] = SPA IC50, 150 nM Compound 211 probe

T1 sequence (Q99814 240-350 limits assumed): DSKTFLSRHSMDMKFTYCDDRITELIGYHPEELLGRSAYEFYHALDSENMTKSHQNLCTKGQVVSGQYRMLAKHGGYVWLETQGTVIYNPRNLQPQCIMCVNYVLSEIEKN

SMILES | pIC50 [1, 2] | pEC50 (786-O-Hif-Luc cells; 24 h) | pEC50 (786-0 cells; [3]) | pEC50 (786-0 cells; 786-0 cells) | pEC50 (786-O-Hif-Luc cells) | pEC50 (786-0 cells; Homo sapiens, 786-0 cells) | pIC50 [1, 4]
N#Cc1cncc(Oc2ccc(S(=N)(=O)C(F)(F)F)c3c2CC(F)(F)[C@H]3O)c1 (stereo partly drawn) [Compound 78, 5-(((1S)-2,2-difluoro-1-hydroxy-7-(S-(trifluoromethyl)sulfonimidoyl)-2,3-dihydro-1H-inden-4-yl)oxy)nicotinonitrile] | 7.60 | 6.83 | 7.08 | – | – | – | –
N#Cc1cncc(Oc2ccc(S(=N)(=O)C(F)(F)F)c3c2CC(F)(F)[C@H]3O)c1 (stereo partly drawn) [Compound 79, 5-(((1S)-2,2-difluoro-1-hydroxy-7-(S-(trifluoromethyl)sulfonimidoyl)-2,3-dihydro-1H-inden-4-yl)oxy)nicotinonitrile] | 7.64 | – | – | 6.94 | 6.97 | – | –
CS(=O)(=O)c1ccc(Oc2cncc(C#N)c2)c2c1[C@H](O)C(F)(F)C2 [Compound 89, (S)-5-((2,2-Difluoro-1-hydroxy-7-(methylsulfonyl)-2,3-dihydro-1H-inden-4-yl)oxy)nicotinonitrile] | 6.74 | 6.31 | 6.84 | – | – | – | –
CS(=O)(=O)c1ccc(Oc2ccc(F)c(C#N)c2)c2c1[C@H](O)C(F)(F)[C@@H]2F [Compound 91, 2-Fluoro-5-(((1S,3R)-2,2,3-trifluoro-1-hydroxy-7-(methylsulfonyl)-2,3-dihydro-1H-inden-4-yl)oxy)benzonitrile] | 7.55 | 6.89 | 6.56 | – | – | – | –
CS(=O)(=O)c1ccc(Oc2cncc(Br)c2)c2c1[C@H](O)[C@H](F)[C@@H]2F [Compound 92, (1S,2S,3R)-4-((5-Bromopyridin-3-yl)oxy)-2,3-difluoro-7-(methylsulfonyl)-2,3-dihydro-1H-inden-1-ol] | 7.49 | 6.79 | 6.73 | – | – | – | –
CS(=O)(=O)c1ccc(Oc2cncc(F)c2)c2c1[C@H](O)C(F)(F)[C@@H]2F [Compound 93, (1S,3R)-2,2,3-trifluoro-4-((5-fluoropyridin-3-yl)oxy)-7-(methylsulfonyl)-2,3-dihydro-1H-inden-1-ol] | > 8.30 | 7.47 | 7.33 | – | – | – | –
CS(=O)(=O)c1ccc(Oc2cncc(Cl)c2)c2c1[C@H](O)C(F)(F)[C@@H]2F [Compound 95, (1S,3R)-4-((5-chloropyridin-3-yl)oxy)-2,2,3-trifluoro-7-(methylsulfonyl)-2,3-dihydro-1H-inden-1-ol] | 8.14 | 7.39 | 7.39 | – | – | – | –
N#Cc1cc(F)cc(Oc2ccc3c(c2Br)[C@@H](O)C(F)(F)S3(=O)=O)c1 [Compound 111, (R)-3-((4-bromo-2,2-difluoro-3-hydroxy-1,1-dioxido-2,3-dihydrobenzo[b]thiophen-5-yl)oxy)-5-fluorobenzonitrile] | 8.14 | – | – | – | 7.64 | 7.19 | –
N#Cc1c(Oc2cc(F)cc(Cl)c2)ccc2c1C(O)CS2(=O)=O (stereo not drawn) [Compound 117, 5-(3-chloro-5-fluorophenoxy)-3-hydroxy-2,3-dihydrobenzo[b]thiophene-4-carbonitrile 1,1-dioxide] | 7.21 | – | – | – | 6.35 | 6.48 | –
O=S1(=O)c2ccc(Oc3cc(F)cc(Cl)c3)c(C(F)(F)F)c2C(O)C1(F)F (stereo not drawn) [Compound 124, 5-(3-Chloro-5-fluorophenoxy)-2,2-difluoro-3-hydroxy-4-(trifluoromethyl)-2,3-dihydrobenzo[b]thiophene 1,1-dioxide] | – | – | – | – | 7.12 | 7.05 | > 8.30
O=S1(=O)c2ccc(Oc3cc(F)cc(Cl)c3)c(C(F)F)c2C(O)C1(F)F (stereo not drawn) [Compound 128, 5-(3-Chloro-5-fluorophenoxy)-4-(difluoromethyl)-2,2-difluoro-3-hydroxy-2,3-dihydrobenzo[b]thiophene 1,1-dioxide] | – | – | – | – | 7.77 | 7.54 | > 8.30
N#Cc1cc(F)cc(Oc2ccc3c(c2C(F)F)C(N)C(F)(F)S3(=O)=O)c1 (stereo not drawn) [Compound 136, 3-((3-Amino-4-(difluoromethyl)-2,2-difluoro-1,1-dioxido-2,3-dihydrobenzo[b]thiophen-5-yl)oxy)-5-fluorobenzonitrile] | > 8.30 | – | – | – | 6.96 | 6.70 | –
N#Cc1cc(F)cc(Oc2ccc3c(c2C(F)F)[C@@H](N)C(F)(F)S3(=O)=O)c1 [Compound 151, (R)-3-((3-Amino-4-(difluoromethyl)-2,2-difluoro-1,1-dioxido-2,3-dihydrobenzo[b]thiophen-5-yl)oxy)-5-fluorobenzonitrile] | 7.16 | – | – | – | 6.86 | 6.17 | –
O=S1(=O)c2ccc(Oc3cc(F)cc(Cl)c3)c(Br)c2[C@@H](O)C1(F)F [Compound 167, (3R)-4-Bromo-5-(3-chloro-5-fluoro-phenoxy)-2,2-difluoro-1,1-dioxo-3H-benzothiophen-3-ol] | – | – | – | – | 7.43 | 7.35 | > 8.30

Further lines, with some results ahead:

pIC50 [1, 2] | pEC50 (786-O-Hif-Luc cells; 24 h) | pEC50 (786-0 cells; [3]) | pEC50 (786-0 cells; 786-0 cells) | SMILES | pEC50 (786-O-Hif-Luc cells) | pEC50 (786-0 cells; Homo sapiens, 786-0 cells) | pIC50 [1, 4]
7.13 | 6.76 | 6.79 | – | CS(=O)(=O)c1ccc(Oc2cncc(C#N)c2)c2c1[C@H](O)[C@H](F)[C@@H]2F [Compound 97, 5-(((1S,2S,3R)-2,3-difluoro-1-hydroxy-7-(methylsulfonyl)-2,3-dihydro-1H-inden-4-yl)oxy)nicotinonitrile] | – | – | –
7.62 | 6.90 | 6.87 | – | N#Cc1cncc(Oc2ccc(S(N)(=O)=O)c3c2[C@@H](F)C(F)(F)[C@H]3O)c1 [Compound 104, (1R,3S)-7-[(5-cyano-3-pyridyl)oxy]-1,2,2-trifluoro-3-hydroxy-indane-4-sulfonamide] | – | – | –
7.74 | 6.94 | 6.80 | – | NS(=O)(=O)c1ccc(Oc2cncc(F)c2)c2c1[C@H](O)C(F)(F)[C@@H]2F [Compound 105, (1R,3S)-1,2,2-trifluoro-7-[(5-fluoro-3-pyridyl)oxy]-3-hydroxy-indane-4-sulfonamide] | – | – | –
7.33 | 7.06 | 7.02 | – | CS(=O)(=O)c1ccc(Oc2cncc(C#N)c2)c2c1[C@H](O)C(F)(F)[C@@H]2F [Compound 106, 5-(((1S,3R)-2,2,3-trifluoro-1-hydroxy-7-(methylsulfonyl)-2,3-dihydro-1H-inden-4-yl)oxy)nicotinonitrile] | – | – | –
8.17 | 7.38 | 6.91 | – | N#Cc1cncc(Oc2ccc(S(=O)(=O)CF)c3c2[C@@H](F)C(F)(F)[C@H]3O)c1 [Compound 108, 5-(((1S,3R)-2,2,3-trifluoro-7-((fluoromethyl)sulfonyl)-1-hydroxy-2,3-dihydro-1H-inden-4-yl)oxy)nicotinonitrile] | – | – | –
> 8.30 | 7.17 | 7.06 | – | NC1c2c(ccc(Oc3cc(F)cc(F)c3)c2C(F)F)S(=O)(=O)C1(F)F (stereo not drawn) [Compound 129, 3-Amino-4-(difluoromethyl)-5-(3,5-difluorophenoxy)-2,2-difluoro-2,3-dihydrobenzo[b]thiophene 1,1-dioxide] | – | – | –
6.91 | 7.01 | 6.75 | – | O=S1(=O)c2ccc(Oc3cncc(Cl)c3)c(Br)c2[C@@H](O)C1(F)F [Compound 185, (R)-4-bromo-5-((5-chloropyridin-3-yl)oxy)-2,2-difluoro-3-hydroxy-2,3-dihydrobenzo[b]thiophene 1,1-dioxide] | – | – | –
6.94 | 7.02 | 6.49 | – | N#Cc1cncc(Oc2ccc3c(c2Br)[C@@H](O)C(F)(F)S3(=O)=O)c1 [Compound 188, (R)-5-((4-Bromo-2,2-difluoro-3-hydroxy-1,1-dioxido-2,3-dihydrobenzo[b]thiophen-5-yl)oxy)nicotinonitrile] | – | – | –
7.96 | 7.33 | 7.11 | – | N#Cc1cc(F)cc(Oc2ccc3c(c2Cl)[C@@H](O)C(F)(F)S3(=O)=O)c1 [Compound 195, (R)-3-((4-chloro-2,2-difluoro-3-hydroxy-1,1-dioxido-2,3-dihydrobenzo[b]thiophen-5-yl)oxy)-5-fluorobenzonitrile] | – | – | –
7.39 | 7.66 | 7.74 | – | CC1(O)c2c(ccc(Oc3cc(F)cc(F)c3)c2C#N)S(=O)(=O)C1(F)F (stereo not drawn) [Compound 210, 5-(3,5-Difluorophenoxy)-2,2-difluoro-3-hydroxy-3-methyl-2,3-dihydrobenzo[b]thiophene-4-carbonitrile 1,1-dioxide] | – | – | –
